Starred links: 1 amine or outer side, 2 acyl side, 3 side chain; linkers in the order of their positions; H or OH if unused. Positions of bridges follow the written chain, without caps; N, C: chain ends. Non-standard residues stand in square brackets, D forms with d. Residues, ends and D or L forms follow the SMILES beside them. *: point of attachment. hPhe(3-Cl-4-CF3) = N[C@@H](CCc1ccc(C(F)(F)F)c(Cl)c1)C(=O)O; hPhe(3-F,4-CF3) = N[C@@H](CCc1ccc(C(F)(F)F)c(F)c1)C(=O)O; X38 = CN([C@@H](Cc1cccc(OC(F)(F)F)c1)C(=O)[*:2])[*:1]; NMePhe(4-CF3) = CN[C@@H](Cc1ccc(C(F)(F)F)cc1)C(=O)O; X23 = CN([C@@H](Cc1ccccc1OC(F)(F)F)C(=O)[*:2])[*:1]; NMePhe(3-OMe) = CN[C@@H](Cc1cccc(OC)c1)C(=O)O; 3Oxa8azabicyclo(3.2.1)octane = C1CC2COCC1N2*; NMePhe(4-Cl) = CN[C@@H](Cc1ccc(Cl)cc1)C(=O)O; NMePhe(4-Me) = CN[C@@H](Cc1ccc(C)cc1)C(=O)O; NMePhe(3-F) = CN[C@@H](Cc1cccc(F)c1)C(=O)O; NMePhe(4-F) = CN[C@@H](Cc1ccc(F)cc1)C(=O)O; X20 = O=C([C@H](Cc1ccc(Br)s1)N[*:1])[*:2]; hPhe(4-F) = N[C@@H](CCc1ccc(F)cc1)C(=O)O; NMeGly(cPent) = CN[C@H](C(=O)O)C1CCCC1; Phe(3-I) = N[C@@H](Cc1cccc(I)c1)C(=O)O; NMeCha = CN[C@@H](CC1CCCCC1)C(=O)O; NMeF = CN[C@@H](Cc1ccccc1)C(=O)O; NMeI = CC[C@H](C)[C@H](NC)C(=O)O; N(CH2CH2)2CF2 = FC1(F)CCN(*)CC1; NMeD = CN[C@@H](CC(=O)O)C(=O)O; dNMeD = CN[C@H](CC(=O)O)C(=O)O; NMeL = CN[C@@H](CC(C)C)C(=O)O; NMeV = CN[C@H](C(=O)O)C(C)C; d(β3hA) = C[C@@H](N)CC(=O)O; NMeS = CN[C@@H](CO)C(=O)O; NMeA = CN[C@@H](C)C(=O)O; NMeAib = CNC(C)(C)C(=O)O; Nle = CCCC[C@H](N)C(=O)O; Piperidide = C1CCN(*)CC1; Pra = C#CC[C@H](N)C(=O)O; Pyrrolidide = C1CCN(*)C1; dNMeA = CN[C@H](C)C(=O)O; Ac5c = NC1(C(=O)O)CCCC1; Aze = O=C(O)[C@@H]1CCN1; Ac4c = NC1(C(=O)O)CCC1; NPrGly = CCCNCC(=O)O; Sar = CNCC(=O)O
The molecules below were run against T1, Kras and SOS1 (biotin-tagged human Kras loaded with GDP, His-tagged human SOS1) (Homo sapiens, UniProt P01116, G12D) (assay: Protein-protein interaction inhibition between Kras and SOS1 (KrasGl2D-SOS PPI) using AlphaScreen). Conditions: AlphaScreen; biotin-tagged human Kras loaded with GDP, His-tagged human SOS1; read-out: KRAS G12D-SOS PPI IC50.
T1 construct: made in house; host or cells: E. coli (stated for Kras only)
Format: binding
Procedure, shortened: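 Energy transfer from nickel-chelate donor beads bound to His-SOS1 to streptavidin acceptor beads bound to biotin-Kras, expressed in E. coli and loaded with GDP after purification, was monitored. Donors were excited at 680 nm; singlet oxygen reaching acceptors gave emission read at 520-620 nm.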

T1 sequence (P01116 1-188 isoform P01116-2 G12D): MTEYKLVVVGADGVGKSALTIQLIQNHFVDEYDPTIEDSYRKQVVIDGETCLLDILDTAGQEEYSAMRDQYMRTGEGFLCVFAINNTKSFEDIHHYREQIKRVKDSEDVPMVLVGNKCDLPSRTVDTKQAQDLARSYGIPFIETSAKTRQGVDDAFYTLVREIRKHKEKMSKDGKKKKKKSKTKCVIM

Row | Structure (SMILES) | IC50 [nM]
1 | CC[C@H](C)[C@@H]1NC(=O)[C@H](CC(C)C)N(C)C(=O)C[C@@H](C(=O)N(C)C)N(C)C(=O)[C@H]([C@@H](C)CC)N(C)C(=O)C2(CCCC2)NC(=O)[C@H](Cc2cccc(OC)c2)N(C)C(=O)[C@H](CCc2ccc(C(F)(F)F)c(Cl)c2)NC(=O)CN(C)C(=O)[C@H](Cc2ccc(C)cc2)N(C)C(=O)[C@@H]2CCN2C(=O)[C@H](C)N(C)C1=O [Compound 1991] ([NMeL]I[NMeA][Aze][NMePhe(4-Me)][Sar][hPhe(3-Cl-4-CF3)][NMePhe(3-OMe)][Ac5c][NMeI][NMeD]-NMe2; lactam N-11) | 9.2
2 | CC[C@H](C)[C@@H]1NC(=O)[C@H](CC(C)C)N(C)C(=O)C[C@@H](C(=O)N2CCCCC2)N(C)C(=O)[C@H](C(C)C)N(C)C(=O)C2(CCC2)NC(=O)[C@H](CC(=O)N2CCC(F)(F)CC2)N(C)C(=O)[C@H](CCc2ccc(C(F)(F)F)c(Cl)c2)NC(=O)CN(C)C(=O)[C@H](CC2CCCCC2)N(C)C(=O)CN(C)C(=O)CN(C)C1=O [Compound 251] ([NMeL]I[Sar][Sar][NMeCha][Sar][hPhe(3-Cl-4-CF3)][NMeD](N(CH2CH2)2CF2)[Ac4c][NMeV][NMeD]-Piperidide; lactam N-11) | 3.8
3 | CC[C@H](C)[C@@H]1NC(=O)[C@H](C)N(C)C(=O)C[C@@H](C)NC(=O)[C@H](C2CCCC2)N(C)C(=O)C2(CCCC2)NC(=O)[C@@H]2CCCN2C(=O)[C@H](CCc2ccc(C(F)(F)F)c(Cl)c2)NC(=O)[C@@H](C)N(C)C(=O)[C@H](Cc2cccc(F)c2)N(C)C(=O)CN(C)C(=O)CN(C)C1=O [Compound 830] (cyclo([Ac5c][NMeGly(cPent)][d(β3hA)][NMeA]I[Sar][Sar][NMePhe(3-F)][dNMeA][hPhe(3-Cl-4-CF3)]P)) | 280
4 | CCCC[C@@H]1NC(=O)[C@H](Cc2cccc(I)c2)NC(=O)CN(C)C(=O)[C@H](Cc2ccc(Cl)cc2)N(C)C(=O)CN(C)C(=O)CN(C)C(=O)[C@H]([C@@H](C)CC)NC(=O)[C@H](CC(C)C)N(C)C(=O)C[C@@H](C(=O)N2CCCCC2)N(C)C(=O)[C@H](CC(C)C)NC(=O)[C@H](Cc2ccccc2OC(F)(F)F)N(C)C1=O [Compound 111] ([NMeL]I[Sar][Sar][NMePhe(4-Cl)][Sar][Phe(3-I)][Nle][X23]L[NMeD]-Piperidide; lactam N-11) | 100
5 | CC(C)C[C@H]1C(=O)N[C@@H](C(C)C)C(=O)N(C)CC(=O)N(C)CC(=O)N(C)[C@@H](CC2CCCCC2)C(=O)N(C)CC(=O)N[C@@H](CCc2ccc(C(F)(F)F)c(F)c2)C(=O)N2CCC[C@H]2C(=O)NC2(CCCC2)C(=O)N(C)[C@@H](CC(C)C)C(=O)N[C@H](C)CC(=O)N1C [Compound 1493] (cyclo([Ac5c][NMeL][d(β3hA)][NMeL]V[Sar][Sar][NMeCha][Sar][hPhe(3-F,4-CF3)]P)) | 100
6 | CC[C@H](C)[C@@H]1NC(=O)[C@H](C)N(C)C(=O)C[C@@H](C(=O)N(C)C)N(C)C(=O)[C@H]([C@@H](C)CC)N(C)C(=O)C2(CCCC2)NC(=O)[C@H](Cc2ccc(F)cc2)N(C)C(=O)[C@H](CCc2ccc(C(F)(F)F)c(Cl)c2)NC(=O)CN(C)C(=O)[C@H](Cc2ccc(C(F)(F)F)cc2)N(C)C(=O)[C@@H]2CCN2C(=O)[C@H](C)N(C)C1=O [Compound 1951] ([NMeA]I[NMeA][Aze][NMePhe(4-CF3)][Sar][hPhe(3-Cl-4-CF3)][NMePhe(4-F)][Ac5c][NMeI][NMeD]-NMe2; lactam N-11) | 9.9
7 | CC[C@H](C)[C@@H]1NC(=O)[C@H](CC(C)C)N(C)C(=O)C[C@H](C(=O)N2CCCC2)N(C)C(=O)[C@H](C2CCCC2)N(C)C(=O)C2(CCCC2)NC(=O)[C@@H]2CCCN2C(=O)[C@H](CCc2ccc(C(F)(F)F)c(Cl)c2)NC(=O)CN(C)C(=O)[C@H](CC2CCCCC2)N(C)C(=O)CN(C)C(=O)CN(C)C1=O [Compound 1794] ([NMeL]I[Sar][Sar][NMeCha][Sar][hPhe(3-Cl-4-CF3)]P[Ac5c][NMeGly(cPent)][dNMeD]-Pyrrolidide; lactam N-11) | 40
8 | C#CC[C@@H]1NC(=O)[C@H](CC(C)C)N(C)C(=O)C[C@@H](C)NC(=O)[C@H](CC(C)C)N(C)C(=O)C2(CCCC2)NC(=O)[C@@H]2CCCN2C(=O)[C@H](CCc2ccc(C(F)(F)F)c(F)c2)NC(=O)CN(C)C(=O)[C@H](CC2CCCCC2)N(C)C(=O)CN(C)C(=O)CN(C)C1=O [Compound 1533] (cyclo([Ac5c][NMeL][d(β3hA)][NMeL][Pra][Sar][Sar][NMeCha][Sar][hPhe(3-F,4-CF3)]P)) | 68
9 | CCCC[C@@H]1NC(=O)[C@H](Cc2cccc(I)c2)NC(=O)CN(C)C(=O)[C@H](Cc2ccc(Cl)cc2)N(C)C(=O)CN(C)C(=O)CN(C)C(=O)[C@H]([C@@H](C)CC)NC(=O)[C@H](CC(C)C)N(C)C(=O)C[C@@H](C(=O)N2CCCCC2)N(C)C(=O)[C@H](CC(C)C)NC(=O)[C@H](Cc2cccc(OC(F)(F)F)c2)N(C)C1=O [Compound 143] ([NMeL]I[Sar][Sar][NMePhe(4-Cl)][Sar][Phe(3-I)][Nle][X38]L[NMeD]-Piperidide; lactam N-11) | 68
10 | CC[C@H](C)[C@@H]1NC(=O)[C@H](CC(C)C)N(C)C(=O)C[C@@H](C(=O)N(C)C)N(C)C(=O)[C@H](C2CCCC2)N(C)C(=O)C2(CCCC2)NC(=O)[C@@H]2CCCN2C(=O)[C@H](CCc2ccc(C(F)(F)F)c(Cl)c2)NC(=O)CN(C)C(=O)[C@H](Cc2ccc(C)cc2)N(C)C(=O)[C@@H]2CCN2C(=O)[C@H](C)NC1=O [Compound 363, (5S,8S,11S,15S,18S,23aS,29S,35S,37aS)-8-((S)-sec-butyl)-29-(3-chloro-4-(trifluoromethyl)phenethyl)-18-cyclopentyl-11-isobutyl-N,N,5,12,16,19,33,36-octamethyl-35-(4-methylbenzyl)-4,7,10,13,17,20,23,28,31,34,37-undecaoxotetratriacontahydro-2H,4H-spiro[azeto[2,1-u]pyrrolo[2,1-i][1,4,7,10,13,16,19,22,25,28,31]undecaazacyclotetratriacontine-21,1′-cyclopentane]-15-carboxamide] ([NMeL]IA[Aze][NMePhe(4-Me)][Sar][hPhe(3-Cl-4-CF3)]P[Ac5c][NMeGly(cPent)][NMeD]-NMe2; lactam N-11) | 0.65
11 | CC[C@H](C)[C@@H]1NC(=O)[C@H](C)N(C)C(=O)C[C@@H](C(=O)N2CCCC2)NC(=O)[C@H](CC(C)C)N(C)C(=O)[C@H](Cc2ccccc2)N(C)C(=O)[C@H](CC(C)C)NC(=O)[C@H](CCc2ccc(F)cc2)NC(=O)CN(C)C(=O)[C@H](Cc2ccc(Cl)cc2)N(C)C(=O)CN(C)C(=O)CN(C)C1=O [Compound 646] ([NMeA]I[Sar][Sar][NMePhe(4-Cl)][Sar][hPhe(4-F)]L[NMeF][NMeL]D-Pyrrolidide; lactam N-11) | 120
12 | CCCN1CC(=O)N(C)[C@@H]([C@@H](C)CC)C(=O)N(C)[C@H](C(=O)N(C)C)CC(=O)N(C)[C@@H](CC(C)C)C(=O)N[C@@H]([C@@H](C)CC)C(=O)N(C)[C@@H](C)C(=O)N2CC[C@H]2C(=O)N(C)[C@@H](Cc2ccc(C)cc2)C(=O)N(C)CC(=O)N[C@@H](CCc2ccc(C(F)(F)F)c(Cl)c2)C(=O)N2CCC[C@H]2C1=O [Compound 1131] ([NMeL]I[NMeA][Aze][NMePhe(4-Me)][Sar][hPhe(3-Cl-4-CF3)]P[NPrGly][NMeI][NMeD]-NMe2; lactam N-11) | 13
13 | CC[C@H](C)[C@@H]1NC(=O)[C@H](CC(C)C)N(C)C(=O)C[C@@H](C(=O)N2C3CCC2COC3)NC(=O)[C@H]([C@@H](C)CC)N(C)C(=O)C2(CCCC2)NC(=O)[C@@H]2CCCN2C(=O)[C@H](CCc2ccc(C(F)(F)F)c(Cl)c2)NC(=O)CN(C)C(=O)[C@H](CC2CCCCC2)N(C)C(=O)CN(C)C(=O)CN(C)C1=O [Compound 1257] ([NMeL]I[Sar][Sar][NMeCha][Sar][hPhe(3-Cl-4-CF3)]P[Ac5c][NMeI]D-{3Oxa8azabicyclo(3.2.1)octane}; lactam N-11) | 6.5
14 | CCCC[C@@H]1NC(=O)[C@H](Cc2ccc(Br)s2)NC(=O)CN(C)C(=O)[C@H](Cc2ccc(Cl)cc2)N(C)C(=O)CN(C)C(=O)CN(C)C(=O)[C@H]([C@@H](C)CC)NC(=O)[C@H](CC(C)C)N(C)C(=O)C[C@@H](C(=O)N2CCCCC2)N(C)C(=O)[C@H](CC(C)C)NC(=O)C(C)(C)N(C)C1=O [Compound 1216] ([NMeL]I[Sar][Sar][NMePhe(4-Cl)][Sar][X20][Nle][NMeAib]L[NMeD]-Piperidide; lactam N-11) | 120
15 | CC[C@H](C)[C@@H]1NC(=O)[C@H](CC(C)C)N(C)C(=O)C[C@@H](C(=O)N2CCCCC2)N(C)C(=O)[C@H](COC)N(C)C(=O)C2(CCCC2)NC(=O)[C@@H]2CCCN2C(=O)[C@H](CCc2ccc(C(F)(F)F)c(Cl)c2)NC(=O)CN(C)C(=O)[C@H](CC2CCCCC2)N(C)C(=O)CN(C)C(=O)CN(C)C1=O [Compound 850] ([NMeL]I[Sar][Sar][NMeCha][Sar][hPhe(3-Cl-4-CF3)]P[Ac5c][NMeS](Me)[NMeD]-Piperidide; lactam N-11) | 24
16 | CC[C@H](C)[C@@H]1NC(=O)[C@H](CC(C)C)N(C)C(=O)C[C@@H](C(=O)N(C)C)N(C)C(=O)[C@H]([C@@H](C)CC)N(C)C(=O)C2(CCCC2)NC(=O)[C@H](C)N(C)C(=O)[C@H](CCc2ccc(C(F)(F)F)c(Cl)c2)NC(=O)CN(C)C(=O)[C@H](Cc2ccc(C)cc2)N(C)C(=O)[C@@H]2CCN2C(=O)[C@H](C)N(C)C1=O [Compound 378, (3S,6S,9S,13S,16S,22S,25S,31S,34S)-25-[2-[3-chloro-4-(trifluoromethyl)phenyl]ethyl]-9-isobutyl-N,N,3,4,10,14,17,22,23,29,32-undecamethyl-6,16-bis[(1S)-1-methylpropyl]-2,5,8,11,15,18,21,24,27,30,33-undecaoxo-31-(p-tolylmethyl)spiro[1,4,7,10,14,17,20,23,26,29,32-undecazabicyclo[32.2.0]hexatriacontane-19,1′-cyclopentane]-13-carboxamide] ([NMeL]I[NMeA][Aze][NMePhe(4-Me)][Sar][hPhe(3-Cl-4-CF3)][NMeA][Ac5c][NMeI][NMeD]-NMe2; lactam N-11) | 0.68

Source: patent US12371454B2, “Cyclic peptide compound having Kras inhibitory action” (priority 2019, dated 2025)
